Source: PMC4879574, “Identification of Leishmania donovani Topoisomerase 1 inhibitors via intuitive scaffold hopping and bioisosteric modification of known Top 1 inhibitors” (Scientific Reports, 2016)
Values joined by “and” are separate entries in the source; they are usually repeats but may differ in a detail not shown here. Equal entries are not always repeated. Where two headings read alike, the source gives them in different places.

Assays:
[1] = target: Leishmania donovani Topoisomerase 1 (LdTop1) (Leishmania donovani, UniProt A0A3Q8IHS4+Q8WQM6); assay: Plasmid DNA relaxation assay, LdTop1 (simultaneous incubation); type: biochemical
Experimental: To investigate the inhibitory effect of our library compounds on the DNA relaxation activity of the recombinant Human and Leishmania topoisomerase 1 (Table 2), assays were performed involving supercoiled plasmid DNA, the enzymes (HTop1 and LdTop1) and our molecules. The enzymes were purified by the standard literature procedure.
(§1) All the experiments were conducted thrice and representative data from once set of them are expressed as mean ± SD.
(§2) The type I DNA topoisomerase are assayed by decreased mobility of the relaxed isomers of supercoiled pBS (SK^+) [pBlue-script (SK^+)] DNA in agarose gel. The relaxation assay was carried out as described previously with LdTop1B and HTop I, diluted in the relaxation buffer (25 mM Tris–HCl, pH 7.5, 5% glycerol, 0.5 mM DTT, 10 mM MgCl2, 50 mM KCl, […] and […] BSA) and supercoiled plasmid pBS (SK^+) DNA (85–95% were negatively supercoiled, with remainder being nicked circles)[9][28][29]. The reconstituted enzyme LdTop1B was assayed at 50 mM KCl concentration as described before. For all kinetic studies, the reaction mixtures containing the buffer and DNA were heated to 37 °C before addition of the enzymes. The reactions were rapidly quenched using stop solution and kept on ice. The gels were stained with ethidium bromide (EtBr) ([…]) and the amount of supercoiled monomer DNA band fluorescence were quantified by integration using Gel Doc 2000 under UV illumination (Bio-Rad Quantity One Software), as described previously.
Cells harvested from 1 litre of culture were separately lysed by lysozyme/sonication, and the proteins were purified through Ni-NTA (Ni^2+-nitriloacetate-agarose column (Qiagen, Hilden, Germany) followed by a phospho-cellulose column (P11 cellulose; Whatman, Maidstone Kent, UK) as described previously. Finally, the purified proteins LdTOP1L and LdTOP1S were stored at −70 °C. The concentrations of each protein were quantified by using Bradford Reagent (PIERCE, Thermo Fisher Scientific Inc., Rockford, USA). Purified LdTOP1L was mixed with purified LdTOP1S at a molar ratio of 1:1 to a total protein concentration of 0.5 mg/ml in reconstitution buffer [50 mM potassium phosphate, pH 7.5, 0.5 mM DTT, 1 mM EDTA, 0.1 mM PMSF and 10% (v/v) glycerol]. The mixture was dialyzed overnight at 4 °C and dialyzed fractions were used for plasmid relaxation activity.

LdTop1 = LdTop1 (Leishmania donovani, UniProt A0A3Q8IHS4+Q8WQM6); assay: Preincubation DNA relaxation inhibition assay, LdTop1; type: biochemical
Experimental: To interrogate whether compound 4 interacts with the enzyme, it was preincubated with LdTop1 at different concentration for 5 minutes at 37 °C before the addition of substrate DNA (Fig. 9a).
as §1, §2

[2] = test system: L. donovani AG83 promastigotes; assay: MTT assay on extracellular promastigotes; type: cell-based; details: Leishmania donovani, 12 h, read-out: Anti-promastigote activity IC50
Experimental: Next, compound 4 was screened against extracellular promastigotes.
L. donovani AG83 promastigotes (3.0 × 10^6 cells/ml) are incubated with different concentrations of drugs/compounds under study (1, 2, 5, 10 and 20 μM) for 12 h, following which the survival percentage is estimated by MTT assay. Yellow MTT (3-(4,5-dimethylthiazol- 2-yl)-2,5-diphenyltetrazolium bromide, a tetrazole) is reduced to purple formazan in the mitochondria of living cells. The formazan is then solubilized, and the concentration is determined by optical density at 570 nm. Metabolically active cells convert MTT to formazan, thereby generating a quantitative measure of viability and cytotoxicity. Percentage of viable promastigotes in each treatment groups are determined with respect to untreated control cells.

Sequence of LdTop1 (Q8WQM6 entry or part of it): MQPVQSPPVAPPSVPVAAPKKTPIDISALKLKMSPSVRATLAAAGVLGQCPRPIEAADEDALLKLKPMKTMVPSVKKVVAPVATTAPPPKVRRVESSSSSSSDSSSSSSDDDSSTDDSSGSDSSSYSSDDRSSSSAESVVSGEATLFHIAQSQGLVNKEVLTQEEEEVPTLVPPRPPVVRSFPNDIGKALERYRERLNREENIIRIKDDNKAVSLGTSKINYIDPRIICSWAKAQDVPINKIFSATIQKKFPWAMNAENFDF
Sequence of LdTop1 (A0A3Q8IHS4 entry or part of it): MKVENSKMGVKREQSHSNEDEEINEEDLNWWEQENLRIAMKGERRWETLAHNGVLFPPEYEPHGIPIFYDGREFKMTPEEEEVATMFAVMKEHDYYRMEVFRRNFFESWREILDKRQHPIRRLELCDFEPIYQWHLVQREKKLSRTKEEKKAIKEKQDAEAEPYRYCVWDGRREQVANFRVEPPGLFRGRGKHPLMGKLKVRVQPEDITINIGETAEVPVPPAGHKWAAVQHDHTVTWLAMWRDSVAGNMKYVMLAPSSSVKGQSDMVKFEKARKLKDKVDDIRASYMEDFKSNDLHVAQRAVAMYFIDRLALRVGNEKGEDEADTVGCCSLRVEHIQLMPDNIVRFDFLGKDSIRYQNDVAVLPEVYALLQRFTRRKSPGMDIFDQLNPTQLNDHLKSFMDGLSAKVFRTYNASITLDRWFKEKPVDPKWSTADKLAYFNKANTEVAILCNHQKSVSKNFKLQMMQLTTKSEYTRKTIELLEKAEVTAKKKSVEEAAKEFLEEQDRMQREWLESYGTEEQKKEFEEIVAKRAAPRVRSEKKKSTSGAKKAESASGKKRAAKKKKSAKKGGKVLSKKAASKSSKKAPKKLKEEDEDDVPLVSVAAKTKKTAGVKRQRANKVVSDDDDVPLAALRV
Sequence of Leishmania donovani Topoisomerase 1 (LdTop1) (Q8WQM6 entry or part of it): as the sequence (Q8WQM6 entry or part of it) above
Sequence of Leishmania donovani Topoisomerase 1 (LdTop1) (A0A3Q8IHS4 entry or part of it): as the sequence (A0A3Q8IHS4 entry or part of it) above

Cc1cc2c(c(=O)[nH]1)C(=O)O/C2=C\c1ccc(O)c(O)c1 [Compound 4]
inhibition at 12.5 µM ([1]; LdTop1 relaxation, 12.5 uM, read-out: % inhibition, mean data): 97.2%
inhibition at 25 µM ([1]; LdTop1 relaxation, 25 uM, read-out: % inhibition, mean data): 99.9%
% inhibition (CPT 100%), data 2 ([1]; LdTop1 relaxation, 50 uM): 100.001%
inhibition at 50 µM ([1]; LdTop1 relaxation, 50 uM, read-out: % inhibition, mean data): 100%
% inhibition (CPT 100%), data 2 ([1]; LdTop1 relaxation, 100 uM): 100.003%
inhibition at 100 µM ([1]; LdTop1 relaxation, 100 uM, read-out: % inhibition, mean data): 100%
EC50 ([1]; incubated simultaneously with LdTop1 and supercoiled DNA, read-out: EC50, simultaneous assay): 3.77 ± 0.27 µM
LdTop1 inhibitory activity ([1]; plasmid DNA relaxation): considerable activity
EC50 ([1]; plasmid DNA relaxation, averages of three experiments, read-out: LDTop1 inhibition (EC50)): 4 µM and 3.51 µM
inhibition at 12.5 µM ([1]; read-out: % inhibition (CPT 100%), data 1, LdTop1 relaxation, 12.5 uM): 97.3%
inhibition at 25 µM ([1]; read-out: % inhibition (CPT 100%), data 1, LdTop1 relaxation, 25 uM): 99.9%
inhibition at 50 µM ([1]; read-out: % inhibition (CPT 100%), data 1, LdTop1 relaxation, 50 uM): 100%
inhibition at 100 µM ([1]; read-out: % inhibition (CPT 100%), data 1, LdTop1 relaxation, 100 uM): 100%
inhibition at 0.62 µM ([1]; read-out: % inhibition (CPT 100%), data 1, simultaneous, 0.62 uM): 7.36%
inhibition at 1.25 µM ([1]; read-out: % inhibition (CPT 100%), data 1, simultaneous, 1.25 uM): 23.5%
inhibition at 2.5 µM ([1]; read-out: % inhibition (CPT 100%), data 1, simultaneous, 2.5 uM): 42.8%
inhibition at 5 µM ([1]; read-out: % inhibition (CPT 100%), data 1, simultaneous, 5 uM): 60.1%
inhibition at 10 µM ([1]; read-out: % inhibition (CPT 100%), data 1, simultaneous, 10 uM): 88.3%
inhibition at 20 µM ([1]; read-out: % inhibition (CPT 100%), data 1, simultaneous, 20 uM): 91.6%
inhibition at 12.5 µM ([1]; read-out: % inhibition (CPT 100%), data 2, LdTop1 relaxation, 12.5 uM): 97.1%
inhibition at 25 µM ([1]; read-out: % inhibition (CPT 100%), data 2, LdTop1 relaxation, 25 uM): 99.9%
inhibition at 50 µM ([1]; read-out: % inhibition (CPT 100%), data 2, LdTop1 relaxation, 50 uM): 100%
inhibition at 100 µM ([1]; read-out: % inhibition (CPT 100%), data 2, LdTop1 relaxation, 100 uM): 100%
inhibition at 0.62 µM ([1]; read-out: % inhibition (CPT 100%), data 2, simultaneous, 0.62 uM): 8.88%
inhibition at 1.25 µM ([1]; read-out: % inhibition (CPT 100%), data 2, simultaneous, 1.25 uM): 22.5%
inhibition at 2.5 µM ([1]; read-out: % inhibition (CPT 100%), data 2, simultaneous, 2.5 uM): 43.7%
inhibition at 5 µM ([1]; read-out: % inhibition (CPT 100%), data 2, simultaneous, 5 uM): 60.9%
inhibition at 10 µM ([1]; read-out: % inhibition (CPT 100%), data 2, simultaneous, 10 uM): 86.5%
inhibition at 20 µM ([1]; read-out: % inhibition (CPT 100%), data 2, simultaneous, 20 uM): 92.9%
inhibition at 0.62 µM ([1]; simultaneous, 0.62 uM, read-out: % inhibition, mean data): 8.12%
inhibition at 1.25 µM ([1]; simultaneous, 1.25 uM, read-out: % inhibition, mean data): 23%
inhibition at 2.5 µM ([1]; simultaneous, 2.5 uM, read-out: % inhibition, mean data): 43.3%
inhibition at 5 µM ([1]; simultaneous, 5 uM, read-out: % inhibition, mean data): 60.5%
inhibition at 10 µM ([1]; simultaneous, 10 uM, read-out: % inhibition, mean data): 87.4%
% inhibition, mean data ([1]; simultaneous, 20 uM): 92.2648%
inhibition at 20 µM ([1]; simultaneous, 20 uM, read-out: % inhibition, mean data): ~92%
EC50 ([1]; supplement sheet, simultaneous, concentrations in uM, read-out: EC50 of 4-Sim): 3.77 µM
inhibition at 0.62 µM (LdTop1; pre-incubation, 0.62 uM, read-out: % inhibition, mean data): 27.4%
inhibition at 1.25 µM (LdTop1; pre-incubation, 1.25 uM, read-out: % inhibition, mean data): 49%
inhibition at 2.5 µM (LdTop1; pre-incubation, 2.5 uM, read-out: % inhibition, mean data): 65.9%
inhibition at 5 µM (LdTop1; pre-incubation, 5 uM, read-out: % inhibition, mean data): 91.2%
inhibition at 10 µM (LdTop1; pre-incubation, 10 uM, read-out: % inhibition, mean data): 97.4%
inhibition at 20 µM (LdTop1; pre-incubation, 20 uM, read-out: % inhibition, mean data): ~100%
EC50 (LdTop1; preincubated with LdTop1 5 min 37 °C before DNA, read-out: EC50, preincubation assay): 1.72 ± 0.23 µM
inhibition at 0.62 µM (LdTop1; read-out: % inhibition (CPT 100%), data 1, pre-incubation, 0.62 uM): 27.1%
inhibition at 1.25 µM (LdTop1; read-out: % inhibition (CPT 100%), data 1, pre-incubation, 1.25 uM): 48.2%
inhibition at 2.5 µM (LdTop1; read-out: % inhibition (CPT 100%), data 1, pre-incubation, 2.5 uM): 67.4%
inhibition at 5 µM (LdTop1; read-out: % inhibition (CPT 100%), data 1, pre-incubation, 5 uM): 91.4%
inhibition at 10 µM (LdTop1; read-out: % inhibition (CPT 100%), data 1, pre-incubation, 10 uM): 97.2%
inhibition at 20 µM (LdTop1; read-out: % inhibition (CPT 100%), data 1, pre-incubation, 20 uM): 100%
inhibition at 0.62 µM (LdTop1; read-out: % inhibition (CPT 100%), data 2, pre-incubation, 0.62 uM): 27.7%
inhibition at 1.25 µM (LdTop1; read-out: % inhibition (CPT 100%), data 2, pre-incubation, 1.25 uM): 49.8%
inhibition at 2.5 µM (LdTop1; read-out: % inhibition (CPT 100%), data 2, pre-incubation, 2.5 uM): 64.5%
inhibition at 5 µM (LdTop1; read-out: % inhibition (CPT 100%), data 2, pre-incubation, 5 uM): 91%
inhibition at 10 µM (LdTop1; read-out: % inhibition (CPT 100%), data 2, pre-incubation, 10 uM): 97.5%
inhibition at 20 µM (LdTop1; read-out: % inhibition (CPT 100%), data 2, pre-incubation, 20 uM): 100%
EC50 (LdTop1; supplement sheet, pre-incubation, concentrations in uM, read-out: EC50 of 4-PI): 1.72 µM
IC50 [2]: 4.21 ± 0.21 µM
